Like-named read-outs stand apart in the source and are kept apart here.
Assays:
[1] = 5-day PK, topical ocular Compound-I in hydroxypropyl-β-cyclodextrin solutions, 30 μL bilateral dose; type: in vivo, Dutch-Belted rabbits; conditions: for Average Concentration, Central Retina: LLOQ = 0.0218 μM
Procedure: All doses were administered with ±1 hour of the scheduled dose time, except on day 1 for Groups 1, 4, and 10. The first dose on day 1 was administered at 12:00 PM, and the second dose (for Groups 1 and 10) was administered approximately 4 hours after. This was due to delayed arrival of formulations. All other dosing for these groups was as scheduled. On day 1, Groups 4-8, and 11-12 received one dose (q.d.) for four (4) days. On days 1 through 4, Groups 1-3, and 9-10 received b.i.d. dosing approximately 8 hours apart for four (4) days.
Ocular sampling occurred one hour following the first daily dose on day 5 for all groups, except Groups 5b and 6b, where ocular sampling occurred 24 hours after the first daily dose on day 4.
Blood samples for plasma collection were obtained just prior to scheduled euthanasia for all animals. […] Cornea, central retina, and central choroid samples from groups 1-12 were assayed. Aqueous humor, peripheral retina, and peripheral choroid samples were not assayed.

[2] = 30-day topical ocular tolerability of cyclodextrin-based solutions; type: in vivo
[3] = Corneal and choroid exposure compared between formulations (topical ocular dosing); type: in vivo, Dutch-belted rabbits
Source text: Overall, the combination of decreased corneal exposure and corresponding improved ocular tolerability, while simultaneously maintaining or promoting drug delivery to the posterior segment target tissues, along with improved physicochemical stability, will provide greater benefit to patients compared to the ophthalmic Gel Drop formulation.

Solubility = type: physicochemical
[4] = design: species or system Dutch-Belted rabbits; conditions: rabbit, in vivo
Procedure: The ocular solution of Compound-I comprising cyclodextrin was prepared and tested in different groups of animals.

[5] = Ocular toxicology study, twice daily 0.3% Tris-based suspension, 30 days; type: in vivo, Dutch-Belted rabbits
[6] = Ocular toxicology study, twice daily 0.3% ophthalmic gel drop: ocular tissue concentrations, electroretinograms; type: in vivo, Dutch-Belted rabbits; conditions: 0.3% gel drop formulations with and without benzylalkonium chloride
Source text: Retinal function was normal in all test article and vehicle treated groups during full-field electroretinograms performed in rabbits.

## Cl.NC(=O)c1c(OCc2c(F)cc(Br)cc2F)nsc1NC(=O)NCCCCN1CCCC1 [Compound-I, 3-[(4-bromo-2,6-difluorophenyl)methoxy]-5-[[[[4-(1-pyrrolidinyl)butyl]amino]carbonyl]amino]-4-isothiazolecarboxamide hydrochloride]
[1]; Group 5a q.d., 1 hr after first daily dose on day 5, n = 1
  Average Concentration, Central Choroid: *0.199 μM
[1]; Group 5b q.d., 24 hr after first daily dose on day 4
  Average Concentration, Central Retina: <LLOQ
[1]; Group 6b q.d., 24 hr after first daily dose on day 4
  Average Concentration, Central Retina: <LLOQ
[1]; Group 6b q.d., 24 hr after first daily dose on day 4, n = 1
  Average Concentration, Central Choroid: *0.218 μM
[1]; Group 7 q.d., 1 hr after first daily dose on day 5, LLOQ = 0.174 μM
  Average Concentration, Central Choroid: <LLOQ
[1]; Group 8 q.d., 1 hr after first daily dose on day 5, n = 1
  Average Concentration, Central Choroid: *0.210 μM
[1]; Group 9 b.i.d., 1 hr after first daily dose on day 5, n = 1
  Average Concentration, Central Choroid: *0.287 μM
[2]; 0.6% cyclodextrin-based solution, 30 days of topical ocular dosing
  findings attributed to test-article or vehicle: no untoward findings
[2]; rabbit, in vivo
  ocular toxicity, clinical ophthalmic or microscopic examinations: No overt ocular toxicity
  tolerability: well tolerated
[3]; cyclodextrin-based solutions, 1 to 30 days dosing, Dutch-belted rabbits
  reduction in corneal concentrations versus equimolar Gel Drop: ~10 ×
[3]; ophthalmic solution, repeated topical ocular dosing, rabbits and dogs
  clinical or histopathologic findings: free of untoward clinical or histopathologic findings
[3]; ophthalmic solution, topical ocular dosing
  target therapeutic exposure in the central choroid versus equimolar ophthalmic gel drop: equal or higher
[3]; rabbit, in vivo
  corneal concentrations, Gel Drop compared to Tris-based suspensions: fifty-fold to hundred-fold higher
  corneal concentrations, Gel Drop compared to cyclodextrin based solution: five-fold to fifteen-fold higher
[3]; suspension-based and cyclodextrin formulations
  reduction of exposure (cornea): 10-100 ×
Solubility; HP-β-CD (KLEPTOSE HPB) at equal to or more than 1:6 molar ratio
  solubility provided (clinical dose strengths): 0.1-1.0%
Solubility; SBE-β-CD (CAPTISOL) at equal to or more than 1:2 ratio
  solubility provided (clinical dose strengths): 0.1-1.0%
Solubility; pH 7.5 (0.05M NaH2PO4)
  Solubility: 1000 µg/mL
Solubility; pH 9.0 (0.05 m Na2HPO4)
  Solubility: 700 µg/mL
[4]
  tolerability: well-tolerated
[5]; 0.3% w/v Tris-based suspension twice daily for 30 days
  eyes at microscopic evaluation: considered normal
[5]; rabbit, in vivo
  tolerability, clinical ophthalmic examinations: well tolerated
[6]
  Mean ocular tissue concentration, peripheral retina: 0.150 to 0.3091 µM
